This note sets out measurements from publication PMC1968196, “Effect of anthracycline analogs on photolabelling of p-glycoprotein by [125I]iodomycin and [3H]azidopine: relation to lipophilicity and inhibition of daunorubicin transport in multidrug resistant cells” (British Journal of Cancer, 1993).

Molecules are shown by their SMILES. Several values for one entry are separate records, joined by “and”; a condition that tells them apart may be missing. Equal entries are not always repeated.

Data set [1] deals with P-glycoprotein. The data set can be described thus: [125I]iodomycin photolabelling of Pgp in EHR2/DNR+ cells. Format: binding, mice. From the text:
(§1) Br. J. Cancer (1993), 67, 226 231 ? Macmillan Press Ltd., 1993 Effect of anthracycline analogs on photolabelling of p-glycoprotein by I'25 liodomycin and [3Hlazidopine: Relation to lipophilicity and inhibition of daunorubicin transport in multidrug resistant cells E. Frichel*, E.J.F. Demant2, M. Sehested3 & N.I. Nissen' 'Department of Medicine and Hematology, L 4042, Rigshospitalet-University Hospital, 9, Blegdamsvej, DK-2100 Copenhagen; 2Department of Biochemistry C, The Panum Institute, University of Copenhagen, DK-2200 Copenhagen; 3Department of Pathology, Sundby Hospital, DK-2300 Copenhagen, Denmark. […] We photoaffinity labelled P-glycoprotein in daunorubicin (DNR) resistant Ehrlich ascites tumour cells (EHR2/DNR + ) with a ['25I]iodinated Bolton-Hunter derivative of daunorubicin ([1251]iodomycin) and with [3H]azidopine. […] Anthracyclines are among the most valuable cytostatic agents in clinical use. Their usefulness is, however, limited by the occurrence of tumour cells with the multidrug resistance (MDR) phenotype (Beck, 1987; Bliek & Borst, 1989; Endicott & Ling, 1989; Kaye & Merry, 1985; Moscow & Cowan, 1988). MDR cells have an enhanced amount of a 150- 170 kDa plasma membrane glycoprotein, P-glycoprotein (Pgp) (Kartner et al., 1983 and 1985; Cornwell et al., 1986; Bradley et al., 1988; Beck, 1991a; Roninson, 1991), that may function as a low-specificity transport protein to facilitate the outward transport of cytotoxic agents including the anthracyclines. Thus, increased drug efflux and therefore decreased accumulation is seen in MDR cells not only to the drug for which resistance is developed but also to a wide spectrum of chemically unrelated cytostatics (Bradley et al., 1988; Fojo et al., 1985). […] The aim of this study was to examine these analogs for their ability to com- pete for ligand binding to Pgp and thus service as inhibitors for the outward drug transport system in MDR cells. Anthracycline inter-actions with Pgp were assessed using the specific photolabelling of the protein with [251I]iodomycin, a ['251]iodinated Bolton-Hunter derivative of DNR (Busche et al., 1989a) and with [3H]azidopine ([3H]AZP) which photolabels Pgp in plasma membrane vesicles from EHR2/ DNR + cells (Sehested et al., 1990) as well as in whole cells (Safa et al., 1987; Friche et al., 1990c). […] Material and methods Chemicals Duanorubicin (DNR); AdriamycinR (Doxorubicin/HCl, DOX); 4'-deoxy-4'-iododoxorubicin (DIDOX); and 4- demethoxy-DNR were kindly supplied from Farmitalia, Carlo Erba (Milan, Italy). N,N-dibenzyl-DNR was a gift from Dr Nicholas Bachur, (Baltimore, MD) and N- benzyladriamycin-14-valerate (AD 198) a gift from Professor M. Israel (Memphis, TN). Mitoxantrone was purchased from Lederle (New Jersey, USA), Aclacinomycin A from Lund- beck & Co A/S (Copenhagen, Denmark), OncovinR (Vincristine/HCl, VCR) from Eli Lilly Deutschland GMBH (Giessen, Germany), Cremophor EL from BASF Aktiengesellschaft (Ludwigshafen, Germany), and Tween 80 from the Sigma Chemical Co. (St. Louis, MO). ['251]-Bolton- Hunter reagent (2000 Ci mmol 1), [3H]AZP (42 Ci mmol- ') and non-radioactive AZP were purchased from Amersham International (Amersham, UK). All other chemicals were of analytical grade. Organic solvents were distilled prior to use. Triethylamine was distilled over ninhydrin and anhydrous methanol was stored over molecular sieve (3 A). Tumour cells Cells were either the wild-type Ehrlich ascites tumor line (EHR2) or the corresponding DNR-resistant line (EHR2/ DNR + ) (Dan0, 1971) displaying both the MDR phenotype (Sehested et al., 1990) and as recently shown, decreased Correspondence: E. Friche. Received 22 April 1992; and in revised form 21 September 1992.

The test system of data set [2] is P-glycoprotein. The data set can be described thus: [3H]azidopine photolabelling of Pgp in EHR2/DNR+ cells. Type of data set: binding, mice. As to conditions: [3H]AZP 0.4 µM.
Source text: as §1

The conditions of data set [3]: pH 7.45.
Source text: as §1

A further data set concerns EHR2/DNR+ cells. In words: Modulating effect on steady-state DNR accumulation in EHR2/DNR+ cells. Type of data set: cell-based, mice. As to conditions: equimolar concentrations (5 µM). From the text: Br. J. Cancer (1993), 67, 226 231 ? Macmillan Press Ltd., 1993 Effect of anthracycline analogs on photolabelling of p-glycoprotein by I'25 liodomycin and [3Hlazidopine: Relation to lipophilicity and inhibition of daunorubicin transport in multidrug resistant cells E. Frichel*, E.J.F. Demant2, M. Sehested3 & N.I. Nissen' 'Department of Medicine and Hematology, L 4042, Rigshospitalet-University Hospital, 9, Blegdamsvej, DK-2100 Copenhagen; 2Department of Biochemistry C, The Panum Institute, University of Copenhagen, DK-2200 Copenhagen; 3Department of Pathology, Sundby Hospital, DK-2300 Copenhagen, Denmark. […] We photoaffinity labelled P-glycoprotein in daunorubicin (DNR) resistant Ehrlich ascites tumour cells (EHR2/DNR + ) with a ['25I]iodinated Bolton-Hunter derivative of daunorubicin ([1251]iodomycin) and with [3H]azidopine. […] Anthracyclines are among the most valuable cytostatic agents in clinical use. […] Anthracycline inter-actions with Pgp were assessed using the specific photolabelling of the protein with [251I]iodomycin, a ['251]iodinated Bolton-Hunter derivative of DNR (Busche et al., 1989a) and with [3H]azidopine ([3H]AZP) which photolabels Pgp in plasma membrane vesicles from EHR2/ DNR + cells (Sehested et al., 1990) as well as in whole cells (Safa et al., 1987; Friche et al., 1990c). […]

Setting [4] is: 10 µM drug (1000-fold molar excess), iodomycin 10 nM, 30 min 37°C.
Setting [5] is: 40 µM drug (100-fold molar excess).

Turning to `CC(=O)[C@]1(O)Cc2c(O)c3c(c(O)c2[C@@H](O[C@H]2C[C@H](N)[C@H](O)[C@H](C)O2)C1)C(=O)c1ccccc1C3=O` [4-demethoxy-daunorubicin], the “Per cent inhibition of [125I]iodomycin photolabelling of Pgp” value with P-glycoprotein [1] (setting [4]) came out at 35.9%; with P-glycoprotein [1] (20 µM drug, iodomycin 10 nM) it was 52.2%; in the data set with P-glycoprotein [1] (40 µM drug, iodomycin 10 nM) it was 58.3%. The figures for the “Per cent inhibition of [3H]AZP photolabelling of Pgp” value in the data set on P-glycoprotein [2] (10 µM drug), in the data set on P-glycoprotein [2] (20 µM drug) and with P-glycoprotein [2] (setting [5]) were 1.5%, 3.6% and 19.8%, respectively. Moreover, the “Lipid solubility (O/W), octanol/water partition coefficient” value in data set [3] worked out at 13.08.
In the case of `CCCCC(=O)OCC(=O)[C@]1(O)Cc2c(O)c3c(c(O)c2[C@@H](O[C@H]2C[C@H](NCc4ccccc4)[C@H](O)[C@H](C)O2)C1)C(=O)c1c(OC)cccc1C3=O` [AD-198, N-benzyladriamycin-14-valerate], the “Per cent inhibition of [125I]iodomycin photolabelling of Pgp” value with P-glycoprotein [1] (setting [4]) is 85%; in the data set on P-glycoprotein [1] (20 µM drug, iodomycin 10 nM) it was 95.8%; with P-glycoprotein [1] (40 µM drug, iodomycin 10 nM), over 99%. Also, the “Per cent inhibition of [3H]AZP photolabelling of Pgp” value in the data set with P-glycoprotein [2] (10 µM drug) was 74.1%; with P-glycoprotein [2] (20 µM drug), 81.7%; with P-glycoprotein [2] (setting [5]) it was 90.9%; with P-glycoprotein [2] (40 µM drug (100-fold molar excess), listed as Ad-198), “about 90%”. In addition, the “Lipid solubility (O/W), octanol/water partition coefficient” value in data set [3] is listed as over 200.
On to `CC[C@@]1(O)C[C@H](O[C@H]2C[C@H](N(C)C)[C@H](O[C@H]3C[C@H](O)[C@H](O[C@H]4CCC(=O)[C@H](C)O4)[C@H](C)O3)[C@H](C)O2)c2c(cc3c(c2O)C(=O)c2c(O)cccc2C3=O)[C@H]1C(=O)OC` [Aclacinomycin A], for which the “Per cent inhibition of [125I]iodomycin photolabelling of Pgp” value is reported as 22.6% in the data set with P-glycoprotein [1] (setting [4]); 52.0% in the data set on P-glycoprotein [1] (20 µM drug, iodomycin 10 nM); 75.3% with P-glycoprotein [1] (40 µM drug, iodomycin 10 nM). Besides, the “Per cent inhibition of [3H]AZP photolabelling of Pgp” value with P-glycoprotein [2] (10 µM drug) amounted to 65.3%; with P-glycoprotein [2] (20 µM drug), 74.7%; with P-glycoprotein [2] (setting [5]), 85.7%. In addition, in the data set on EHR2/DNR+ cells, the “Effect on accumulation of DNR” value is given as “did increase accumulation of DNR the most”.
With `O=C1c2c(O)ccc(O)c2C(=O)c2c(NCCNCCO)ccc(NCCNCCO)c21` [Mitoxantrone], the “Per cent inhibition of [125I]iodomycin photolabelling of Pgp” value was found to be 42.9% with P-glycoprotein [1] (setting [4]); 56.9% with P-glycoprotein [1] (20 µM drug, iodomycin 10 nM); 58.8% in the data set with P-glycoprotein [1] (40 µM drug, iodomycin 10 nM). Also, the “Per cent inhibition of [3H]AZP photolabelling of Pgp” value was 7.5% with P-glycoprotein [2] (10 µM drug), 15.6% in the data set on P-glycoprotein [2] (20 µM drug) and 19.5% in the data set on P-glycoprotein [2] (setting [5]). The “Lipid solubility (O/W), octanol/water partition coefficient” value in data set [3] came out at 5.06.
`CC[C@]1(O)C[C@H]2CN(CCc3c([nH]c4ccccc34)[C@@](C(=O)OC)(c3cc4c(cc3OC)N(C=O)[C@H]3[C@@](O)(C(=O)OC)[C@H](OC(C)=O)[C@]5(CC)C=CCN6CC[C@]43[C@@H]65)C2)C1` [Vincristine]: the “Per cent inhibition of [125I]iodomycin photolabelling of Pgp” value with P-glycoprotein [1] (1 µM modulator) is 53.1%; in the data set on P-glycoprotein [1] (1 µM modulator, listed as VCR) it was “about 50%”; with P-glycoprotein [1] (5 µM modulator (500-fold molar excess)), 78.6%; in the data set on P-glycoprotein [1] (setting [4]) it was 95% and 94.3%; in the data set on P-glycoprotein [1] (10 µM drug (1000-fold molar excess), iodomycin 10 nM, 30 min 37°C, listed as VCR), “almost completely blocked”. Further, the “Lipid solubility (O/W), octanol/water partition coefficient” value in data set [3] is 1.98.
